Assay results as given in patent US20200407398A1, “Short Proline-Rich Lipopeptide Potentiates Minocycline and Rifampicin Against Multidrug-and Extensively Drug-Resistant Pseudomonas Aeruginosa” (priority 2018, published 2020).
Like-named read-outs stand apart in the source and are kept apart here. Peptide text beside a SMILES is read from it. * marks the point of attachment. Acetyl(1-adamantyl) = O=C(CC12CC3CC(CC(C3)C1)C2)*; Palmitoyl = CCCCCCCCCCCCCCCC(=O)*; Lauroyl = CCCCCCCCCCCC(=O)*; Octanoyl = CCCCCCCC(=O)*

How the values were obtained:
Assay type in all cases: cell-based
pig erythrocytes = system: pig erythrocytes
Experimental: Since PRAMPs are able to kill bacteria through membrane lysis, it is imperative to evaluate whether these synthesized SPRLPs also lyse eukaryotic membranes. The ability to lyse porcine red blood cells was assessed and the minimum concentration to result in 5% erythrocyte hemolysis (MHC) was reported (Tables 2 & 3). […] This greatly limits their therapeutic potential. […] However, all other SPRLPs were non-hemolytic (MHC>512 μg/mL).
The ability of SPRLPs to lyse eukaryotic red blood cells were quantified by the amount of hemoglobin released upon incubation with pig erythrocytes, following published protocols (37, 39). Fresh pig blood drawn from pig antecubital vein was centrifuged at 1000×g for 5 minutes at 4° C., washed with PBS three times and re-suspended in the same buffer, consecutively. Then, agents of interest were 2-fold serially diluted in PBS on 96-well plate and mixed with equal volumes of erythrocyte solution. Post 1-hour incubation at 37° C., intact cells were pelleted by centrifugation at 1000×g for 5 minutes at 4° C. The supernatant was then transferred to a new 96-well plate. The hemoglobin released was measured via EMax Plus microplate reader (Molecular Devices, USA) at 570 nm wavelength. Erythrocytes in PBS with or without 0.1% Triton X-100 was used as negative or positive control, respectively.

[1] = system: methicillin-resistant S. aureus ATCC 33592
Experimental: (§1) The synthesized SPRLPs were evaluated for their antibacterial potency against a panel of Gram-positive and Gram-negative bacteria (Tables 2 & 3). Some of the included pathogens were collected from patients visiting or admitted to participating Canadian hospitals through the CAN-ICU (27) and CANWARD (28) national surveillance studies. Antibacterial activity was assessed using minimum inhibitory concentration (MIC) against various clinical pathogens.
(§2) Isolates used in this study were either obtained from the American Type Culture Collection (ATCC), the Canadian National Intensive Care Unit (CAN-ICU) surveillance study (27) or the Canadian Ward Surveillance (CANWARD) study (28). Clinical isolates belonging to the CAN-ICU and CANWARD studies were recovered from patients suffering a presumed infectious disease entering or admitted in a participating medical center across Canada during the time of study. MDR P. aeruginosa strains in this study refer to those that are resistant to aminoglycosides, fluoroquinolones, cephalosporins, and carbapenems while XDR strains are those that are resistant to aminoglycosides, fluoroquinolones, cephalosporins, carbapenems, aztreonam and penicillin+β-lactamase inhibitor combination (39, 40).
(§3) Microbroth dilution susceptibility test following the Clinical and Laboratory Standards Institute (CLSI) guidelines (32) was performed to assess the in vitro antibacterial activity of SPRLPs. Overnight grown bacterial cultures were diluted in saline to achieve a 0.5 McFarland turbidity, followed by 1:50 dilution in Mueller-Hinton broth (MHB) for inoculation to a final concentration of 5×10^5 colony forming units/mL. The assay was done on a 96-well plate to which the agents of interest were 2-fold serially diluted in MHB and incubated with equal volumes of inoculum at 37° C. for 18 hours. MIC was determined as the lowest concentration to inhibit visible bacterial growth in form of turbidity, which was confirmed using EMax Plus microplate reader (Molecular Devices, USA) at a wavelength of 590 nm. The well containing MHB broth with or without bacterial cells was used as positive or negative control, respectively.

[2] = system: methicillin-susceptible Staphylococcus epidermidis CANWARD-2008 81388; settings: methicillin-susceptible CANWARD-2008 81388
Experimental: as §1, §2, §3

S. aureus ATCC 29213 = system: S. aureus ATCC 29213
Experimental: as §1, §2, §3

P. aeruginosa ATCC 27853 = system: P. aeruginosa ATCC 27853
Experimental: as §1, §2, §3

[3] = system: A. baumannii CAN-ICU 63169
Experimental: as §1, §2, §3

[4] = system: P. aeruginosa CANWARD-2011 96846 (gentamicin-, tobramycin-resistant)
Experimental: as §1, §2, §3

[5] = system: E. coli CAN-ICU 63074 (amikacin-intermediate resistant)
Experimental: as §1, §2, §3

[6] = system: S. maltophilia CAN-ICU 62584
Experimental: as §1, §2, §3

[7] = system: P. aeruginosa wild-type PAO1
Experimental: as §1, §2, §3

[8] = system: methicillin-resistant S. epidermidis CAN-ICU 61589 (ceftazidime-resistant); settings: methicillin-resistant CAN-ICU 61589 (ceftazidime-resistant)
Experimental: as §1, §2, §3

[9] = system: E. coli CAN-ICU 61714 (gentamicin-resistant)
Experimental: as §1, §2, §3

E. coli ATCC 25922 = system: E. coli ATCC 25922
Experimental: as §1, §2, §3

E. faecalis ATCC 29212 = system: E. faecalis ATCC 29212
Experimental: as §1, §2, §3

K. pneumoniae ATCC 13883 = system: K. pneumoniae ATCC 13883
Experimental: as §1, §2, §3

[10] = system: E. coli CANWARD-2011 97615 (gentamicin-, tobramycin-, ciprofloxacin-resistant) aac(3′)iia
Experimental: as §1, §2, §3

[11] = system: P. aeruginosa CAN-ICU 62308 (gentamicin-resistant)
Experimental: as §1, §2, §3

E. faecium ATCC 27270 = system: E. faecium ATCC 27270
Experimental: as §1, §2, §3

Row | Structure (SMILES) | MHC (minimum concentration that resulted in 5% red blood cell hemolysis) (pig erythrocytes; red cells of porcine) [µg/mL] | MIC [1] [µg/mL] | MIC [2] [µg/mL] | MIC (S. aureus ATCC 29213) [µg/mL] | MIC (P. aeruginosa ATCC 27853) [µg/mL] | MIC [3] [µg/mL] | MIC [4] [µg/mL] | MIC [5] [µg/mL] | MIC [6] [µg/mL] | MIC [7] [µg/mL] | MIC [8] [µg/mL] | MIC [9] [µg/mL] | MIC (E. coli ATCC 25922) [µg/mL] | MIC (E. faecalis ATCC 29212) [µg/mL] | MIC (K. pneumoniae ATCC 13883) [µg/mL] | MIC [10] [µg/mL] | MIC [11] [µg/mL] | MIC (E. faecium ATCC 27270) [µg/mL] | MHC (minimum concentration that resulted in 5% red blood cell hemolysis) (pig erythrocytes) [µg/mL]
1 | CC(C)C[C@H](NC(=O)[C@@H]1CCCN1C(=O)[C@H](CCCNC(=N)N)NC(=O)[C@@H]1CCCN1C(=O)CC12CC3CC(CC(C3)C1)C2)C(=O)N1CCC[C@H]1C(=O)N[C@@H](CCCNC(=N)N)C(=O)N1CCC[C@H]1C(N)=O [Ad-PLP, Adamantyl-CH2CO-PRPLPRP-NH2] ({Acetyl(1-adamantyl)}-PRPLPRP-NH2) | >512 | >128 | >128 | >128 | >128 | >128 | >128 | >128 | >128 | >512 | >128 | >128 | >128 | >128 | >128 | >128 | >128 | >128 | 
2 | CCCCCCCC(=O)N1CCC[C@H]1C(=O)N[C@@H](CCCNC(=N)N)C(=O)N1CCC[C@H]1C(=O)NCC(=O)N1CCC[C@H]1C(=O)N[C@@H](CCCNC(=N)N)C(=O)N1CCC[C@H]1C(N)=O [Compound C8-PGP, CH3(CH2)6CO-PRPGPRP-NH2] (Octanoyl-PRPGPRP-NH2) | >512 | >128 | >128 | >128 | >128 | >128 | >128 | >128 | >128 | >512 | >128 | >128 | >128 | >128 | >128 | >128 | >128 | >128 | 
3 | CCCCCCCCCCCC(=O)N1CCC[C@H]1C(=O)N[C@@H](CCCNC(=N)N)C(=O)N1CCC[C@H]1C(=O)N[C@@H](CC(C)C)C(=O)N1CCC[C@H]1C(=O)N[C@@H](CCCNC(=N)N)C(=O)N1CCC[C@H]1C(N)=O [Compound C12-PLP, CH3(CH2)10CO-PRPLPRP-NH2] (Lauroyl-PRPLPRP-NH2) | >512 | 128 | 64 | 128 | >128 | >128 | >128 | >128 | >128 | 512 | 64 | >128 | >128 | 128 | >128 | >128 | >128 | 128 | 
4 | N=C(N)NCCC[C@H](NC(=O)[C@@H]1CCCN1C(=O)CNC(=O)[C@@H]1CCCN1C(=O)[C@H](CCCNC(=N)N)NC(=O)[C@@H]1CCCN1C(=O)CC12CC3CC(CC(C3)C1)C2)C(=O)N1CCC[C@H]1C(N)=O [Ad-PGP, Adamantyl-CH2CO-PRPGPRP-NH2] ({Acetyl(1-adamantyl)}-PRPGPRP-NH2) | >512 | >128 | >128 | >128 | >128 | >128 | >128 | >128 | >128 | >512 | >128 | >128 | >128 | >128 | >128 | >128 | >128 | >128 | 
5 | CCCCCCCC(=O)N1CCC[C@H]1C(=O)N[C@@H](CCCNC(=N)N)C(=O)N1CCC[C@H]1C(=O)N[C@@H](Cc1c[nH]c2ccccc12)C(=O)N1CCC[C@H]1C(=O)N[C@@H](CCCNC(=N)N)C(=O)N1CCC[C@H]1C(N)=O [Compound C8-PWP, CH3(CH2)6CO-PRPWPRP-NH2] (Octanoyl-PRPWPRP-NH2) | >512 | >128 | >128 | >128 | >128 | >128 | >128 | >128 | >128 | >512 | >128 | >128 | >128 | >128 | >128 | >128 | >128 | >128 | 
6 | CCCCCCCCCCCCCCCC(=O)N1CCC[C@H]1C(=O)N[C@@H](CCCNC(=N)N)C(=O)N1CCC[C@H]1C(=O)N[C@@H](CC(C)C)C(=O)N1CCC[C@H]1C(=O)N[C@@H](CCCNC(=N)N)C(=O)N1CCC[C@H]1C(N)=O [Compound C16-PLP, CH3(CH2)14CO-PRPLPRP-NH2] (Palmitoyl-PRPLPRP-NH2) |  | 64 | 32 | 64 | >128 | 128 | >128 | 64 | >128 | 32 | 64 | 64 | 128 | 64 | 128 | 128 | >128 | 64 | 16
7 | CCCCCCCCCCCC(=O)N1CCC[C@H]1C(=O)N[C@@H](CCCNC(=N)N)C(=O)N1CCC[C@H]1C(=O)N[C@@H](Cc1c[nH]c2ccccc12)C(=O)N1CCC[C@H]1C(=O)N[C@@H](CCCNC(=N)N)C(=O)N1CCC[C@H]1C(N)=O [Compound C12-PWP, CH3(CH2)10CO-PRPWPRP-NH2] (Lauroyl-PRPWPRP-NH2) |  | 32 | 16 | 32 | >128 | 128 | >128 | 128 | >128 | 64 | 16 | 128 | 128 | 32 | >128 | 128 | >128 | 32 | 64
